Ends that are not written are not given here. * marks the point of attachment. Biotin = O=C1N[C@H]2[C@H](CS[C@H]2CCCCC(=O)*)N1
Key:
[1] = system: antibody coated beads (P3X63/Ag8, A32, 7B9, F39F, 7B2, 13H11, 2F5); settings: flow cytometry, all antibody coated beads tested
Procedure: (§1) Antibody-coated beads. Carboxyl-polystyrene beads (3.0-3.4 μm) (Spherotech, Inc., Lake Forest, Ill.) were resuspended in 0.01 M sodium acetate buffer (pH 5.0) and reacted (20° C.×1 hr) with 1-ethyl-3-(3-dimethylaminopropyl) carbodiimide hydrochloride (EDC) (Sigma-Aldrich, Co., St. Louis, Mo.) at a ratio of 3.1 mg beads to 1 mg EDC. Beads were washed with sodium acetate buffer, resuspended in a minimal volume before adding purified mAb in the same buffer (ratio of 16 mg beads to 1 mg mAb), incubated (20° C.×2 hrs), then washed with sodium acetate buffer. Beads were resuspended at 5% in PBS containing 1% bovine serum albumin and 0.02% sodium azide.
(§2) Use of antibody-coated beads and cell lines for tetramer quality control. Tetramer stocks were diluted to twice the desired final concentration in PBS containing 1% BSA. An equal volume of beads or cells at 5×10^5 up to 2×10^6 per sample were mixed with tetramer and incubated (4° C.×30 min). Beads or cells were washed with PBS+1% BSA before being fixed in 2% methanol-free formaldehyde (Polysciences, Inc, Warrington, Pa.) in PBS. Samples were stored at 4° C. prior to being analyzed by flow cytometry (BD LSR II, Becton Dickinson, Mountain View, Calif.). Data were analyzed using FlowJo (Tree Star, Ashland, Oreg.). For tetramer titration 40-80 ng tetramer per 10^6 cells/beads was serially diluted over 8-12 points. Optimal concentrations determined by this method were used for subsequent experiments. For cold competition experiments the incubation step was performed by staining with 10-fold excess unlabeled tetramer (4° C.×30 min) prior to the addition of APC-labeled tetramer. For cell dilution experiments, a mixture of mAb cell lines was made and then 1:10 serial dilutions of cells prepared. For cross competition experiments, mixtures of cells were prepared and then stained singly with anti-IgG reagents or tetramer, or the cells were doubly stained with both reagents either sequentially or concurrently.

[2] = system: total naïve splenic BALB/c B cells; settings: APC-labeled tetramer
Procedure: (§3) Cell isolation, serum collection, and PBMC isolations. Heparinized or non-heparanized blood was collected sub-mandibularly 10 days after immunizations. For preparation of peripheral blood lymphocytes for B cell tetramer analysis, PBMC were isolated from blood collected in heparinized tubes (0.2 ml) using Lympholyte M (Cederlane). For Luminex and ELISA assays, sera was isolated from non-heparanized blood and stored at −20° C. until use. Spleen, bone marrow (BM), and peritoneal cavity (PerC) cells were also collected. For most immunizations, tissues were harvested after the 4th boost, except for kinetic studies, in which tissues from mice were harvested after 1, 3 or 7 days after a single immunization. For BM preparations, femora and tibiae were removed, aspirated with tissue medium using 23 gauge needles, filtered with 70 μm cell strainers (BD labware), and RBC-depleted using Tris-buffered ammonium chloride lysis. For splenocyte preparation, spleens were harvested and dissociated into single-cell suspensions either by passage through 70 μm cell strainers in tissue medium or by using frosted glass slides, and blood erythrocytes were depleted with ammonium chloride lysis. For isolation of peritoneal cells, peritoneal cavities of sacrificed mice were lavaged by injection with 10 ml of PBS, followed by gentle massage of the abdomen, and withdrawal of the peritoneal exudates. BM, splenic, and peritoneal single cell suspensions were centrifuged at 1500 rpm for 5 min and resuspended in 5, 10, and 1 ml of tissue media, respectively, for cell counts and immunofluorescence staining. Cell counts were performed in duplicate on a Coulter ZI Dual Threshold Cell Counter (Coulter).
(§4) Antibodies and flow cytometry. Immunofluorescent staining of single cell suspensions (≧2×10^6) was conducted using pre-mixed combinations of fluorochrome-labeled antibodies and APC-conjugated B cell tetramers at empirically-determined optimal concentrations. All antibodies were from BD unless otherwise stated. […] Other reagents included biotinylated antibodies against dump channel markers: Thy1 (Ox7; Abcam), F4/80 (BM8; Abcam), CD11c (clone HL3), Gr-1 (clone RB6-8C5), TER-119, and NK-1.1 (clone PK136), secondary staining SA-Texas Red conjugate; v-amine live/dead violet dye (Molecular Probes), and Fc block (anti-CD16/32; clone 2.4G2).
(§5) Staining was conducted at 4° C. in several sequential steps in FACS staining buffer (1×PBS with 2% FCS, 0.1% NaN3), washing twice between steps. First, cells were incubated with v-amine live/dead dye for 15 min. Next, cells were stained with APC-labeled tetramers for 30 min. Where applicable, this was preceded by addition of cold tetramer at 10 fold molar excess for 1 h. Finally, cells were stained with Fc block for 30 min, followed by incubation with combinations of primary antibody cocktails for 30 min, and secondary staining with SA-Texas Red for 30 min.
(§6) Data were acquired using an LSRII flow cytometer and Cell Quest software (BD Immunocytometry systems). A minimum of 250000 events were acquired per sample. FACS Analysis was performed using FlowJo software (Tree Star). For analysis, single cells were positively gated based on their forward scatter height vs. forward scatter area and side scatter height vs. side scatter area profiles, lymphocytes were then positively gated based on their forward and side scatter profile (live lymphocyte gate), residual dead cells were excluded with negative gating on v-amine live/dead dye, and all irrelevant non-B cells were excluded with negative gating on dump markers Thy1, F4/80, CD11c, Gr-1, TER-119, and NK-1.1.

[3] = system: mAb cell lines P3X63/Ag8, F39F, 7B2, 13H11; settings: flow cytometry, all Ig+ cell lines tested
Procedure: as §2

[4] = system: V3 loop mAbs 7B9 and F39F on beads; settings: flow cytometry
Procedure: as §1, §2

[5] = system: total naïve splenic C57BL/6 B cells; settings: C57BL/6, APC-labeled tetramer
Procedure: as §3, §4, §5, §6

[6] = system: mAb 7B9 (anti-gp120 V3 62.19); settings: SPR, mAb 7B9 captured
mAb F39F (anti-gp120 V3) = settings: SPR, mAb F39F captured, 25° C., PBS pH 7.4
Procedure: Surface Plasmon Resonance (SPR) measurements of tetramer binding to peptide epitopes. Tetramer binding assays were carried out on a BIAcore 3000 (BIAcore/GE Healthcare, Piscataway, N.J.) instrument using mAbs against each specific B cell epitope.
Each mAb (about 1000 RU) was first captured on anti-human Fc mAb (Pierce, Rockford, Ill.) immobilized on a CM5 sensor chip. Approximately 3000 RU of anti-human Fc mAb was covalently coupled to each flow cell of the sensor chip as described before (Alam et al, Journal of Immunology 178:4424-4435 (2007)). Each B cell tetramer was injected over its epitope specific mAb or a control surface immobilized with irrelevant mAb. For each tetramer binding curve, non-specific binding signals obtained from the control surface were subtracted. The binding assay was monitored at 25° C. and using PBS, pH 7.4, as the running buffer. The BIAevaluation 3.0 software (BIAcore/GE Healthcare, Piscataway, N.J.) was used for SPR binding data analyses.

[7] = system: mixture of F39F cells and P3X63/Ag8 cells; settings: 6% F39F cells, 94% P3X63/Ag8 cells; sequential or simultaneous staining
Procedure: as §2

F39F cells = settings: flow cytometry
Procedure: as §2

[8] = gp41 HR2 peptide immunization, serum anti-2F5 epitope Ab ELISA, C57BL/6; type: in vivo, C57BL/6 mice; settings: C57BL/6, peptide in Emulsigen + oCpG, i.p., ELISA 10 days after each immunization
Procedure: (§7) Peptide immunogen formulation, dose, route of immunization, and immunization schedule. The peptide immunogen used was a gp41 heptad repeat-2 (HR2) DP 1 78Q16L peptide ([…]), synthesized and purified from Primm, and verified to be >95% purified as determined by mass spectrometry. Lyophilized peptide immunogens stored at 4° C. (Primm Biotechnology) were reconstituted by dissolving in DMSO at 8 mg/ml and bringing up to 1 mg/ml in saline. Adjuvanting was done by dissolving mouse oCpG, (5′-[…]-3′; Midland Certified Reagent Company) in saline at 1 mg/ml and first mixing with Oil/water Emulsigen (MVP laboratories) in saline, then with peptide, such as to create a final mixture of 50 μg/ml oCpG, 125 μg/ml peptide, 10% Emulsigen (for i.p. immunizations) and 200 μg/ml oCpG, 500 μg/ml peptide, 10% Emulsigen (for i.m. immunizations). Immunization primes and boosts were all done at a single site intraperitoneally using a volume of 200 μl of the above formulation, such that mice in all instances were injected with 25 μg peptide and 10 μg oCpG. Mice were primed for 10 days and then boosted four times, every 14 days.
(§8) Cell isolation, serum collection, and PBMC isolations.
(§9) ELISA assays. […] Optical density was read at 405 nm with a BioRad 680 microplate reader. […]

[9] = gp41 HR2 peptide immunization, serum anti-2F5 epitope Ab ELISA, BALB/c; type: in vivo, BALB/c mice; settings: peptide in Emulsigen + oCpG, i.p., ELISA 10 days after each immunization
Procedure: as §7, §8, §9

Substance | binding to any antibody on beads [1] | binding to total naïve splenic B cells [2] | binding to mAb cell lines [3] | binding to antibody-coated beads [4] | binding to total naïve splenic B cells [5] | koff [6] | kon [6] | koff (mAb F39F (anti-gp120 V3)) | kon (mAb F39F (anti-gp120 V3)) | effect of PE labeled anti-IgG heavy chain reagent on tetramer binding [7] | binding to mAb cell line (F39F cells) | anti-2F5 serum Ab titers [8] | anti-2F5 serum Ab response [9]
Biotin-GGGGGDWEYSVWLSN [dsDNA mimic tetramer] | did not bind | no significant binding above background | no cell line bound |  |  |  |  |  |  |  |  |  | 
Biotin-GGGTRPNNNTRKSIHIGPGRAFYATE [62.19 V3 tetramer] |  | minimal binding |  | bound to both V3 loop mAbs 7B9 and F39F | minimal binding | 0.19 s^−1 × 10^−3 | 35.6 M^−1s^−1 × 10^3 | 0.60 s^−1 × 10^−3 | 60.5 M^−1s^−1 × 10^3 | does not inhibit | bound |  | 
enfuvirtide |  |  |  |  |  |  |  |  |  |  |  | no appreciable anti-2F5 serum Ab titers | robust anti-2F5 serum Ab responses
